Marks after values point to notes of the source that are not given here.
What was measured:
[1] = system: uptake of phosphate from the intestine; assay: In vivo assay: bolus phosphorus (phosphate) challenge; set-up: species or system Sprague-Dawley rats; details: Structure (V) examples, Table 4, rat; for Serum increase [Pi] mg/dL from baseline low PI state: mean ± SD
Protocol: (§1) By pretreating animals with a low phosphorus diet followed by the subsequent dosing of a phosphorus bolus, serum phosphorus levels were monitored after 30 minutes as a surrogate for intestinal phosphorus absorption. […] The in vivo bolus phosphorus challenge model used here mimics this model in rats.
Male, 7-week-old Sprague-Dawley rats (Charles-River laboratories international, Hollister, Calif.) were allowed to acclimatize for a minimum of 3 days before switching to a synthetic low-phosphorus diet (TD.85010, Harlan Teklad, Madison, Wis.) which contains 0.1% phosphorus and 0.6% calcium. At day 5, testing compounds or vehicle alone (as indicated) were orally administered at the indicated dose in a volume of 5 ml/kg, followed by a bolus gavage of monobasic sodium phosphate (1 mmol in 1 ml) 15 min after compound dosing. Serum was collected via retroorbital bleeding 30 min post phosphate bolus and phosphate levels were determined utilizing an ACE ALERA blood chemistry analyzer (Alfa Wassermann Diagnostic Technologies, West Caldwell, N.J.). […]
Male, 7-week-old Sprague-Dawley rats (Charles-River laboratories international, Hollister, Calif.) were allowed to acclimate for a minimum of 3 days before switching to a synthetic low-phosphorus diet (TD.85010, Harlan Teklad, Madison, Wis.) which contains 0.1% phosphorus and 0.6% calcium. At day 5, testing compounds or vehicle alone (as indicated) were orally administered at the indicated dose in a volume of 5 ml/kg, followed by a bolus gavage of monobasic sodium phosphate (1 mmol in 1 ml) 15 min after compound dosing. Serum was collected via retroorbital bleeding 30 min post phosphate bolus and phosphate levels were determined utilizing an ACE ALERA blood chemistry analyzer (Alfa Wassermann Diagnostic Technologies, West Caldwell, N.J.).
Serum was collected 30 minutes after gavage, and phosphate levels measured. […] The in vivo bolus phosphate challenge model used here mimics this model in rats.
Male, 7-week-old Sprague-Dawley rats (Charles-River laboratories international, Hollister, Calif.) were allowed to acclimatize for a minimum of 3 days before switching to a low-phosphorus diet (TD.85010, Harlan Teklad, Madison, Wis.) which contains 0.1% phosphorus and 0.6% calcium. At day 5, testing compounds or vehicle alone (as indicated) were orally administered at the indicated dose in a volume of 5 ml/kg, followed by a bolus gavage of monobasic sodium phosphate (1 mmol in 1 ml) 15 min after compound dosing. Serum was collected via retroorbital bleeding 30 min post phosphate bolus and serum phosphate levels were determined utilizing an ACE ALERA blood chemistry analyzer (Alfa Wassermann Diagnostic Technologies, West Caldwell, N.J.).
The representative data on effects of test compounds on serum phosphate levels are shown in Table 4 (data are expressed as mean±SD, with 6 animals per data point). The differences between groups were evaluated by one-way analysis of variance with Dunnett's post hoc tests.

[2] = Stability of compounds in simulated gastric and intestinal fluid; type: in vitro ADME; details: Structure (V) examples, Table 3, 3 hr; for % remaining, SGF: simulated gastric fluid; for % remaining, SIF: simulated intestinal fluid
Protocol: (§2) Test compounds were incubated at 1-20 μM in simulated gastric fluid (SGF; standard USP solution with 3 mg/mL pepsin) or simulated intestinal fluid (SIF; standard USP solution with 3 mg/mL pancreatin) for 3 hr or 6 hr. HPLC-UV or HPLC-MS were used to determine test compound levels using peak area %. Results (Table 5) were reported as the percentage of test compound remaining after incubation in a given condition relative to test compound present at t=0 in the same condition.
as §2, with “3” for “3 hr or 6”, “3)” for “5)”

[3] = system: NaPi2b; assay: Competition with phosphate: Pi uptake assay repeated at 2.1 vs 0.1 mM phosphate; type: cell-based; details: potency at 2.1 vs 0.1 mM phosphate
Summary of the method: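 Phosphate uptake assay with compound, performed at 0.1 mM phosphate and repeated at 2.1 mM phosphate, with IC50 values determined at each phosphate concentration to assess competition with phosphate.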

[4] = system: Uptake of Phosphorus from the Intestine; assay: In vivo bolus phosphorus challenge; set-up: species or system rat; details: Sprague-Dawley rats on low-phosphorus diet; oral Drug Dose 30, 15 min before phosphate bolus; serum 30 min post bolus
Protocol: as §1
Male, 7-week-old Sprague-Dawley rats (Charles-River laboratories international, Hollister, Calif.) were allowed to acclimatize for a minimum of 3 days before switching to a synthetic low-phosphorus diet (TD.85010, Harlan Teklad, Madison, Wis.) which contains 0.1% phosphorus and 0.6% calcium. At day 5, testing compounds or vehicle alone (as indicated) were orally administered at the indicated dose in a volume of 5 ml/kg, followed by a bolus gavage of monobasic sodium phosphate (1 mmol in 1 ml) 15 min after compound dosing. Serum was collected via retroorbital bleeding 30 min post phosphate bolus and phosphate levels were determined utilizing an ACE ALERA blood chemistry analyzer (Alfa Wassermann Diagnostic Technologies, West Caldwell, N.J.).
The extent of inhibition by test compounds on the elevation of serum phosphate levels in response to the bolus of phosphorus is shown in Table 12 (data are expressed as % Inhibition, with 6-10 animals per data point). The differences between groups were evaluated by one-way analysis of variance with Dunnett's post hoc tests.

[5] = system: 5/6 nephrectomy (5/6Nx) rat model of CKD; assay: In vivo evaluation procedure: CKD rats, drug in chow; details: for FGF23 (serum FGF23 levels): ELISA
Protocol: To assess the ability of selected example compounds to impact the progression of chronic kidney disease (CKD), 5/6 nephrectomy (5/6Nx) rat model of CKD was used. […] Upon arrival, the surgeries and extent of kidney damage in the animals were assessed by measuring serum creatinine, P, Ca, and BUN. Based on this analysis, rats with inconsistent kidney function were removed from the study and the remainder of the cohort was divided in to evenly stratified test groups. The remaining animals were then placed on the same synthetic diet used in the drug-in-chow studies (Example 350), except the P levels were adjusted to 0.9% P. Drugs are blended into this chow to achieve the required dosing rate. At this time, rats were also started on an activated Vitamin D regimen in which they were injected intraperitoneally with calcitriol at 80 ng/kg three times a week. Once a week, serum was collected via retro orbital bleeding for analysis of serum P and creatinine utilizing an ACE ALERA blood chemistry analyzer. […] Unless otherwise indicated, the data shown is from the serum collected at 2 weeks after initiation of the treatment regimen. In addition, for study #3, during the third week of the study, the animals were placed in metabolic cages for two days, and urine collected for the final 24 hours.

[6] = oral 30 mg/kg, vehicle 5.0 ± 1.3
[7] = Study 3, 5/6Nx rats, data at 3 weeks

For `COCCNC(=O)CCSCc1cccc(C(=O)Nc2ccc(N3CCCCC3)cc2C(=O)N/N=C/c2ccc(Cl)c(C(F)(F)F)c2)c1` [Ex. 49, (E)-N-(2-(2-(4-chloro-3-(trifluoromethyl)benzylidene)hydrazinecarbonyl)-4-(piperidin-1-yl)phenyl)-3-((3-(2-methoxyethylamino)-3-oxopropylthio)methyl)benzamide], the “% Decrease in serum [Pi]” value ([1]; oral 30 mg/kg) was 24%, the “Serum increase [Pi] mg/dL from baseline low PI state” value (“Serum increase [Pi] mg/dL” for short) [1, 6] was 3.8 ± 0.8 mg/dL and the “% remaining, SGF” value [2] was 21%. The “% remaining, SIF” value [2] was 89%.

For `O=C(NCCN1CCOCC1)c1cccc(C(=O)Nc2ccc(N3CCCCC3)cc2C(=O)N/N=C/c2ccc(Cl)c(C(F)(F)F)c2)c1` [Ex. 53, (E)-N^1-(2-(2-(4-chloro-3-(trifluoromethyl)benzylidene)hydrazinecarbonyl)-4-(piperidin-1-yl)phenyl)-N3-(2-morpholinoethyl)isophthalamide], the “% Decrease in serum [Pi]” value ([1]; oral 10 mg/kg) was 62%, the “Serum increase [Pi] mg/dL” value ([1]; oral 10 mg/kg) was 1.9 ± 1.1 mg/dL and the “% Decrease in serum [Pi]” value ([1]; oral 30 mg/kg) was 79%. The “Serum increase [Pi] mg/dL” value [1, 6] was 1.1 ± 0.8 mg/dL, the “% remaining, SGF” value [2] was 6% and the “% remaining, SIF” value [2] was 107%.

For `O=C(O)c1cccc(SCc2cccc(C(=O)Nc3ccc(N4CCCCC4)cc3-c3cc(C(=O)NCc4cccc(C(F)(F)F)c4)ccn3)c2)c1` [Example 8.1, 3-(3-(4-(piperidin-1-yl)-2-(4-(3-(trifluoromethyl)benzylcarbamoyl)pyridin-2-yl)phenylcarbamoyl)benzylthio)benzoic acid], the “Competitive with respect to Pi?” value [3] was “No”.

In the case of `CN(CCN1CCOCC1)C(=O)c1cccc(C(=O)Nc2ccc(N3CCCCC3)cc2-c2cc(C(=O)NCc3cccc(C(F)(F)F)c3)ccn2)c1` [Example 80, N1-Methyl-N1-(2-morpholinoethyl)-N3-(4-(piperidin-1-yl)-2-(4-((3-(trifluoromethyl)benzyl)carbamoyl)pyridin-2-yl)phenyl)isophthalamide], the “Competitive with respect to Pi?” value [3] is reported as “No” and the “% Inhibition of Serum P elevation” value [4] is reported as 20-30%.

In the case of `CCN(CC)c1ccc(NC(=O)c2cccc(CSCCOCCOCCOCCOCCOCCOCCOCCOCCC(=O)O)c2)c(-c2cc(C(=O)NCc3cccc(C(F)(F)F)c3)ccn2)c1` [Example 166, 1-(3-(4-(diethylamino)-2-(4-(3-(trifluoromethyl)benzylcarbamoyl)pyridin-2-yl)phenylcarbamoyl)phenyl)-5,8,11,14,17,20,23,26-octaoxa-2-thianonacosan-29-oic acid], the “Ser P (serum P)” value ([5]; Study 2, 5/6Nx rats, 0.9% P diet + calcitriol, 2 weeks) is reported as 11 mg/dL, the “Ser CRE (serum creatinine)” value ([5]; Study 2, 5/6Nx rats, 2 weeks) is reported as 1.2 mg/dL and the “FGF23 (serum FGF23 levels)” value ([5]; Study 2, 5/6Nx rats, 2 weeks) is reported as 100000 pg/mL. The “Ser CRE (serum creatinine)” value [5, 7] was 1.0^§ mg/dL, the “Ser P (serum P)” value [5, 7] was 10^§ mg/dL and the “FGF23 (serum FGF23 levels)” value ([5]; Study 3, 5/6Nx rats, data at 4 weeks) was 1.2 × 10^5§§ pg/mL.

With `CCN(CC)c1ccc(NC(=O)c2cccc(CCCOCCOCCOCCOCCOCCOCCOCCOCCOC)c2)c(-c2cc(C(=O)N[C@H]3CCCc4ccccc43)ccn2)c1` [Example 261, (S)-2-(2-(3-(2,5,8,11,14,17,20,23,26-nonaoxanonacosan-29-yl)benzamido)-5-(diethylamino)phenyl)-N-(1,2,3,4-tetrahydronaphthalen-1-yl)isonicotinamide] the “Ser P (serum P)” value ([5]; Study 1, 5/6Nx rats, 0.9% P diet + calcitriol, 2 weeks) was 9.7 mg/dL, the “Ser CRE (serum creatinine)” value ([5]; Study 1, 5/6Nx rats, 2 weeks) was 1.0 mg/dL and the “FGF23 (serum FGF23 levels)” value ([5]; Study 1, 5/6Nx rats, 2 weeks) was >15,000 pg/mL.
